In PubChem BioAssay (NCI):
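Dose response: 5 concentrations. Exposure: 48 h. Format: 96-well plates. Endpoint: linear interpolation; highest concentration if not reached. Abbreviation: GI50, concentration required for 50% inhibition of growth. At the TGI there is no net growth.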

How the values were obtained:
Assay in all cases: growth of human tumour cells (NCI), 48 h
786-0 renal = system: 786-0 renal
A498 renal = system: A498 renal
A549 NSCLC = system: A549 NSCLC
ACHN renal = system: ACHN renal
BT-549 breast = system: BT-549 breast
CAKI-1 renal = system: CAKI-1 renal
CCRF-CEM leukemia = system: CCRF-CEM leukemia
COLO 205 colon = system: COLO 205 colon
DU-145 prostate = system: DU-145 prostate
EKVX NSCLC = system: EKVX NSCLC
HCC-2998 colon = system: HCC-2998 colon
HCT-116 colon = system: HCT-116 colon
HCT-15 colon = system: HCT-15 colon
HL-60(TB) leukemia = system: HL-60(TB) leukemia
HOP-62 NSCLC = system: HOP-62 NSCLC
HOP-92 NSCLC = system: HOP-92 NSCLC
HS 578T breast = system: HS 578T breast
HT29 colon = system: HT29 colon
IGROV1 ovarian = system: IGROV1 ovarian
K-562 leukemia = system: K-562 leukemia
KM12 colon = system: KM12 colon
LOX IMVI melanoma = system: LOX IMVI melanoma
M14 melanoma = system: M14 melanoma
MALME-3M melanoma = system: MALME-3M melanoma
MCF7 breast = system: MCF7 breast
MDA-MB-231 breast = system: MDA-MB-231 breast
MDA-MB-435 = system: MDA-MB-435
MOLT-4 leukemia = system: MOLT-4 leukemia
NCI-H226 lung = system: NCI-H226 lung
NCI-H23 lung = system: NCI-H23 lung
NCI-H460 lung = system: NCI-H460 lung
NCI-H522 lung = system: NCI-H522 lung
NCI/ADR-RES ovarian = system: NCI/ADR-RES ovarian
OVCAR-3 ovarian = system: OVCAR-3 ovarian
OVCAR-4 ovarian = system: OVCAR-4 ovarian
OVCAR-5 ovarian = system: OVCAR-5 ovarian
OVCAR-8 ovarian = system: OVCAR-8 ovarian
PC-3 prostate = system: PC-3 prostate
RPMI-8226 leukemia = system: RPMI-8226 leukemia
RXF 393 renal = system: RXF 393 renal
SF-268 CNS = system: SF-268 CNS
SF-295 CNS = system: SF-295 CNS
SF-539 CNS = system: SF-539 CNS
SK-MEL-2 melanoma = system: SK-MEL-2 melanoma
SK-MEL-28 melanoma = system: SK-MEL-28 melanoma
SK-MEL-5 melanoma = system: SK-MEL-5 melanoma
SK-OV-3 ovarian = system: SK-OV-3 ovarian
SN12C renal = system: SN12C renal
SNB-19 CNS = system: SNB-19 CNS
SNB-75 CNS = system: SNB-75 CNS
SR leukemia = system: SR leukemia
SW-620 colon = system: SW-620 colon
T-47D breast = system: T-47D breast
TK-10 renal = system: TK-10 renal
U251 CNS = system: U251 CNS
UACC-257 melanoma = system: UACC-257 melanoma
UACC-62 melanoma = system: UACC-62 melanoma
UO-31 renal = system: UO-31 renal

## COc1ccccc1Cn1cc2c(c1)-c1oncc1CC2
786-0 renal
  GI50: 2.44 µM
  TGI: 29.7 µM
A498 renal
  GI50: 0.269 µM
  TGI: 3.44 µM
A549 NSCLC
  GI50: 0.825 µM
  TGI: > 75 µM
ACHN renal
  GI50: 2.12 µM
  TGI: > 100 µM
BT-549 breast
  GI50: 7.5 µM
  TGI: > 100 µM
CAKI-1 renal
  GI50: 0.545 µM
  TGI: > 55.8 µM
CCRF-CEM leukemia
  GI50: 0.29 µM
COLO 205 colon
  GI50: 0.553 µM
  TGI: 2.43 µM
DU-145 prostate
  GI50: 0.357 µM
  TGI: 3.4 µM
EKVX NSCLC
  GI50: 0.83 µM
  TGI: > 94.2 µM
HCC-2998 colon
  GI50: 0.873 µM
  TGI: 6.87 µM
HCT-116 colon
  GI50: 0.39 µM
  TGI: 13.6 µM
HCT-15 colon
  GI50: 0.535 µM
  TGI: > 61.2 µM
HL-60(TB) leukemia
  GI50: 0.268 µM
  TGI: 0.814 µM
HOP-62 NSCLC
  GI50: 1.02 µM
  TGI: > 100 µM
HOP-92 NSCLC
  GI50: 2.75 µM
  TGI: 57.7 µM
HS 578T breast
  GI50: 0.384 µM
  TGI: 3.03 µM
HT29 colon
  GI50: 0.351 µM
  TGI: 11.7 µM
IGROV1 ovarian
  GI50: 1.84 µM
  TGI: > 78.7 µM
K-562 leukemia
  GI50: 0.391 µM
  TGI: > 33.5 µM
KM12 colon
  GI50: 0.435 µM
  TGI: 6.94 µM
LOX IMVI melanoma
  GI50: 0.946 µM
  TGI: 23.1 µM
M14 melanoma
  GI50: 0.549 µM
  TGI: > 41.9 µM
MALME-3M melanoma
  GI50: 1.41 µM
  TGI: > 100 µM
MCF7 breast
  GI50: 0.381 µM
  TGI: > 66.5 µM
MDA-MB-231 breast
  GI50: 1.34 µM
  TGI: > 100 µM
MDA-MB-435
  GI50: 0.208 µM
  TGI: 0.545 µM
MOLT-4 leukemia
  GI50: 0.477 µM
  TGI: 14.8 µM
NCI-H226 lung
  GI50: 6.99 µM
  TGI: > 100 µM
NCI-H23 lung
  GI50: 0.8 µM
  TGI: > 55.3 µM
NCI-H460 lung
  GI50: 0.334 µM
  TGI: 4.75 µM
NCI-H522 lung
  GI50: 1.22 µM
  TGI: 5.08 µM
NCI/ADR-RES ovarian
  GI50: 0.529 µM
  TGI: 3.7 µM
OVCAR-3 ovarian
  GI50: 0.307 µM
  TGI: 0.888 µM
OVCAR-4 ovarian
  GI50: 3.86 µM
  TGI: 97.9 µM
OVCAR-5 ovarian
  GI50: 0.756 µM
  TGI: > 74.1 µM
OVCAR-8 ovarian
  GI50: 1.92 µM
  TGI: > 50.8 µM
PC-3 prostate
  GI50: 2.01 µM
  TGI: > 100 µM
RPMI-8226 leukemia
  GI50: 0.454 µM
RXF 393 renal
  GI50: 1.31 µM
  TGI: > 21.4 µM
SF-268 CNS
  GI50: 1.21 µM
  TGI: > 75.1 µM
SF-295 CNS
  GI50: 0.375 µM
  TGI: 3.88 µM
SF-539 CNS
  GI50: 0.453 µM
  TGI: 5.13 µM
SK-MEL-2 melanoma
  GI50: 4.43 µM
  TGI: 72.7 µM
SK-MEL-28 melanoma
  GI50: 2.52 µM
  TGI: > 100 µM
SK-MEL-5 melanoma
  GI50: 0.45 µM
  TGI: 6.77 µM
SK-OV-3 ovarian
  GI50: 0.46 µM
  TGI: 8.44 µM
SN12C renal
  GI50: 0.728 µM
  TGI: > 100 µM
SNB-19 CNS
  GI50: 0.625 µM
  TGI: > 100 µM
SNB-75 CNS
  GI50: 0.396 µM
  TGI: 9.7 µM
SR leukemia
  GI50: 0.379 µM
  TGI: 8.95 µM
SW-620 colon
  GI50: 0.351 µM
  TGI: > 100 µM
T-47D breast
  GI50: 2.15 µM
  TGI: > 100 µM
TK-10 renal
  GI50: 2.67 µM
  TGI: > 78 µM
U251 CNS
  GI50: 0.503 µM
  TGI: 39 µM
UACC-257 melanoma
  GI50: 10.4 µM
  TGI: > 63.6 µM
UACC-62 melanoma
  GI50: 1.11 µM
  TGI: > 100 µM
UO-31 renal
  GI50: 4.28 µM
  TGI: 42.7 µM

## O=C1OC(c2ccc(O)cc2)(c2ccc(O)cc2)c2cccc3cccc1c23
786-0 renal
  GI50: 20.2 µM
  TGI: 41.8 µM
A498 renal
  GI50: 0.488 µM
  TGI: 15.3 µM
A549 NSCLC
  GI50: 14.4 µM
  TGI: 36.2 µM
ACHN renal
  GI50: 14.3 µM
  TGI: 27.9 µM
BT-549 breast
  GI50: 1.26 µM
  TGI: 4.01 µM
CAKI-1 renal
  GI50: 18.1 µM
  TGI: 44.6 µM
CCRF-CEM leukemia
  GI50: 19.8 µM
  TGI: 48.4 µM
COLO 205 colon
  GI50: 0.737 µM
  TGI: 18.4 µM
DU-145 prostate
  GI50: 17.2 µM
  TGI: 31.6 µM
HCC-2998 colon
  GI50: 15.8 µM
  TGI: 32.5 µM
HCT-116 colon
  GI50: 15.6 µM
  TGI: 31.5 µM
HCT-15 colon
  GI50: 13.6 µM
  TGI: 34.3 µM
HL-60(TB) leukemia
  GI50: 18 µM
  TGI: 45.5 µM
HOP-62 NSCLC
  GI50: 17.3 µM
  TGI: 38.1 µM
HOP-92 NSCLC
  GI50: 12.2 µM
  TGI: 26.8 µM
HS 578T breast
  GI50: 0.249 µM
  TGI: 20.9 µM
HT29 colon
  GI50: 19.4 µM
  TGI: 39.6 µM
IGROV1 ovarian
  GI50: 17.6 µM
  TGI: 42.7 µM
K-562 leukemia
  GI50: 15.7 µM
  TGI: 61.3 µM
KM12 colon
  GI50: 10.5 µM
  TGI: 25.2 µM
LOX IMVI melanoma
  GI50: 15.2 µM
  TGI: 34.7 µM
M14 melanoma
  GI50: 16.4 µM
  TGI: 33 µM
MALME-3M melanoma
  GI50: 20 µM
  TGI: 43.4 µM
MCF7 breast
  GI50: 1.98 µM
  TGI: 25.9 µM
MDA-MB-231 breast
  GI50: 14.2 µM
  TGI: 35.5 µM
MDA-MB-435
  GI50: 9.04 µM
  TGI: 22.4 µM
MOLT-4 leukemia
  GI50: 11.7 µM
  TGI: 33.8 µM
NCI-H226 lung
  GI50: 17.6 µM
  TGI: 44.7 µM
NCI-H23 lung
  GI50: 17.8 µM
  TGI: 37.2 µM
NCI-H460 lung
  GI50: 17.9 µM
  TGI: 39.6 µM
NCI-H522 lung
  GI50: 14 µM
  TGI: 33.5 µM
NCI/ADR-RES ovarian
  GI50: 21.9 µM
  TGI: 68.7 µM
OVCAR-3 ovarian
  GI50: 3.53 µM
  TGI: 19.9 µM
OVCAR-4 ovarian
  GI50: 0.18 µM
  TGI: 17.4 µM
OVCAR-5 ovarian
  GI50: 16.5 µM
  TGI: 31.7 µM
OVCAR-8 ovarian
  GI50: 16.7 µM
  TGI: 44.1 µM
PC-3 prostate
  GI50: 11.5 µM
  TGI: 29 µM
RPMI-8226 leukemia
  GI50: 18.6 µM
  TGI: 50.5 µM
RXF 393 renal
  GI50: 14.6 µM
  TGI: 29.9 µM
SF-268 CNS
  GI50: 14.2 µM
  TGI: 32.2 µM
SF-295 CNS
  GI50: 15 µM
  TGI: 31.8 µM
SF-539 CNS
  GI50: 15.2 µM
  TGI: 29 µM
SK-MEL-2 melanoma
  GI50: 15.6 µM
  TGI: 31.2 µM
SK-MEL-28 melanoma
  GI50: 14.3 µM
  TGI: 29.5 µM
SK-MEL-5 melanoma
  GI50: 16.1 µM
  TGI: 31.3 µM
SK-OV-3 ovarian
  GI50: 18.8 µM
  TGI: 33.1 µM
SN12C renal
  GI50: 12.7 µM
  TGI: 38.4 µM
SNB-19 CNS
  GI50: 16.8 µM
  TGI: 34.5 µM
SNB-75 CNS
  GI50: 9.97 µM
  TGI: 27.1 µM
SR leukemia
  GI50: 10.8 µM
  TGI: 38.3 µM
SW-620 colon
  GI50: 15.5 µM
  TGI: 33.3 µM
T-47D breast
  GI50: 0.118 µM
  TGI: 12 µM
TK-10 renal
  GI50: 18 µM
  TGI: 34 µM
U251 CNS
  GI50: 15.6 µM
  TGI: 30.3 µM
UACC-257 melanoma
  GI50: 13.8 µM
  TGI: 27.8 µM
UACC-62 melanoma
  GI50: 11.3 µM
  TGI: 25.7 µM
UO-31 renal
  GI50: 12.5 µM
  TGI: 28.9 µM
